Reference: the supplement of paper PMC10307832

Tests used:
Test in all cases: relative viability (nuclei count vs DMSO), 5 days (fraction); higher = more cells survive
201T = tested on: 201T
Procedure, shortened: (§1)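 Relative viability equals treated-well nuclei counts divided by vehicle-well nuclei counts. Counts came from 4× images of lung cancer cell lines grown in 1536-well plates for 5 days after pin-tool dosing on the day after seeding. Dosing used one drug alone or a fixed anchor-drug dose plus five library-drug doses (not always all listed) in √10 steps, and values are medians of duplicate plates.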

A-427 = tested on: A-427
Procedure, shortened: as §1

BEN = tested on: BEN
Procedure, shortened: as §1

COR-L23 = tested on: COR-L23
Procedure, shortened: as §1

EKVX = tested on: EKVX
Procedure, shortened: as §1

EMC-BAC-2 = tested on: EMC-BAC-2
Procedure, shortened: as §1

EPLC-272H = tested on: EPLC-272H
Procedure, shortened: as §1

HCC-44 = tested on: HCC-44
Procedure, shortened: as §1

HCC-827 = tested on: HCC-827
Procedure, shortened: as §1

LCLC-103H = tested on: LCLC-103H
Procedure, shortened: as §1

LK-2 = tested on: LK-2
Procedure, shortened: as §1

LXF-289 = tested on: LXF-289
Procedure, shortened: as §1

NCI-H1650 = tested on: NCI-H1650
Procedure, shortened: as §1

NCI-H1651 = tested on: NCI-H1651
Procedure, shortened: as §1

NCI-H1793 = tested on: NCI-H1793
Procedure, shortened: as §1

NCI-H1915 = tested on: NCI-H1915
Procedure, shortened: as §1

NCI-H2087 = tested on: NCI-H2087
Procedure, shortened: as §1

NCI-H2126 = tested on: NCI-H2126
Procedure, shortened: as §1

NCI-H2347 = tested on: NCI-H2347
Procedure, shortened: as §1

NCI-H358 = tested on: NCI-H358
Procedure, shortened: as §1

NCI-H460 = tested on: NCI-H460
Procedure, shortened: as §1

NCI-H596 = tested on: NCI-H596
Procedure, shortened: as §1

SW 1573 = tested on: SW 1573
Procedure, shortened: as §1

For `O=C(O)CCCCC(CCSCc1ccccc1)SCc1ccccc1` (centres undefined) [CPI-613] + Nc1nc2[nH]cc(CCc3ccc(C(=O)N[C@@H](CCC(=O)O)C(=O)O)cc3)c2c(=O)[nH]1 [Pemetrexed] (partner 0.2 µM), the relative viability (201T; first compound 5 µM) was 0.268, the relative viability (201T; first compound 15.81 µM) was 0.341 and the relative viability (201T; first compound 50 µM) was 0.327. It also gave a relative viability (201T; first compound 158.11 µM) of 0.24, a relative viability (201T; first compound 500 µM) of 0.179 and a relative viability (A-427; first compound 5 µM) of 1.04. The relative viability (A-427; first compound 15.81 µM) was 0.84, the relative viability (A-427; first compound 50 µM) was 0.928 and the relative viability (A-427; first compound 158.11 µM) was 0.857. For the same compound, the relative viability (A-427; first compound 500 µM) was 0.444, the relative viability (BEN; first compound 5 µM) was 0.809 and the relative viability (BEN; first compound 15.81 µM) was 0.571. For the same compound, the relative viability (BEN; first compound 50 µM) was 0.763, the relative viability (BEN; first compound 158.11 µM) was 0.76 and the relative viability (BEN; first compound 500 µM) was 0.703. The relative viability (COR-L23; first compound 5 µM) was 0.216, the relative viability (COR-L23; first compound 15.81 µM) was 0.197 and the relative viability (COR-L23; first compound 50 µM) was 0.192. It also gave a relative viability (COR-L23; first compound 158.11 µM) of 0.2, a relative viability (COR-L23; first compound 500 µM) of 0.013 and a relative viability (EKVX; first compound 5 µM) of 0.373. It also gave a relative viability (EKVX; first compound 15.81 µM) of 0.355, a relative viability (EKVX; first compound 50 µM) of 0.306 and a relative viability (EKVX; first compound 500 µM) of 0.388. The relative viability (EMC-BAC-2; first compound 5 µM) was 0.435, the relative viability (EMC-BAC-2; first compound 15.81 µM) was 0.409 and the relative viability (EMC-BAC-2; first compound 50 µM) was 0.456. It also gave a relative viability (EMC-BAC-2; first compound 158.11 µM) of 0.461, a relative viability (EMC-BAC-2; first compound 500 µM) of 0.349 and a relative viability (EPLC-272H; first compound 5 µM) of 0.324. It also gave a relative viability (EPLC-272H; first compound 15.81 µM) of 0.289, a relative viability (EPLC-272H; first compound 50 µM) of 0.318 and a relative viability (EPLC-272H; first compound 158.11 µM) of 0.206. It also gave a relative viability (EPLC-272H; first compound 500 µM) of 0.05, a relative viability (HCC-44; first compound 5 µM) of 0.635 and a relative viability (HCC-44; first compound 15.81 µM) of 0.61. For the same compound, the relative viability (HCC-44; first compound 50 µM) was 0.592, the relative viability (HCC-44; first compound 158.11 µM) was 0.622 and the relative viability (HCC-44; first compound 500 µM) was 0.53. It also gave a relative viability (HCC-827; first compound 5 µM) of 0.251, a relative viability (HCC-827; first compound 15.81 µM) of 0.268 and a relative viability (HCC-827; first compound 50 µM) of 0.276. For the same compound, the relative viability (HCC-827; first compound 158.11 µM) was 0.267, the relative viability (HCC-827; first compound 500 µM) was 0.273 and the relative viability (LCLC-103H; first compound 5 µM) was 0.514. For the same compound, the relative viability (LCLC-103H; first compound 15.81 µM) was 0.462, the relative viability (LCLC-103H; first compound 50 µM) was 0.414 and the relative viability (LCLC-103H; first compound 158.11 µM) was 0.452. For the same compound, the relative viability (LCLC-103H; first compound 500 µM) was 0.272, the relative viability (LK-2; first compound 5 µM) was 0.337 and the relative viability (LK-2; first compound 15.81 µM) was 0.225. For the same compound, the relative viability (LK-2; first compound 50 µM) was 0.324, the relative viability (LK-2; first compound 158.11 µM) was 0.265 and the relative viability (LK-2; first compound 500 µM) was 0.241. For the same compound, the relative viability (LXF-289; first compound 5 µM) was 0.903, the relative viability (LXF-289; first compound 15.81 µM) was 0.828 and the relative viability (LXF-289; first compound 50 µM) was 0.851. It also gave a relative viability (LXF-289; first compound 158.11 µM) of 0.757, a relative viability (LXF-289; first compound 500 µM) of 0.568 and a relative viability (NCI-H1650; first compound 5 µM) of 0.346. The relative viability (NCI-H1650; first compound 15.81 µM) was 0.376, the relative viability (NCI-H1650; first compound 50 µM) was 0.393 and the relative viability (NCI-H1650; first compound 158.11 µM) was 0.151. The relative viability (NCI-H1650; first compound 500 µM) was 0.0174, the relative viability (NCI-H1651; first compound 5 µM) was 0.591 and the relative viability (NCI-H1651; first compound 15.81 µM) was 0.588. For the same compound, the relative viability (NCI-H1651; first compound 50 µM) was 0.579, the relative viability (NCI-H1651; first compound 158.11 µM) was 0.519 and the relative viability (NCI-H1651; first compound 500 µM) was 0.579. For the same compound, the relative viability (NCI-H1793; first compound 5 µM) was 0.895, the relative viability (NCI-H1793; first compound 15.81 µM) was 0.71 and the relative viability (NCI-H1793; first compound 50 µM) was 0.832. It also gave a relative viability (NCI-H1793; first compound 158.11 µM) of 0.378, a relative viability (NCI-H1793; first compound 500 µM) of 0.0257 and a relative viability (NCI-H1915; first compound 5 µM) of 0.415. The relative viability (NCI-H1915; first compound 15.81 µM) was 0.513, the relative viability (NCI-H1915; first compound 50 µM) was 0.458 and the relative viability (NCI-H1915; first compound 158.11 µM) was 0.409. It also gave a relative viability (NCI-H1915; first compound 500 µM) of 0.0364, a relative viability (NCI-H2087; first compound 5 µM) of 0.642 and a relative viability (NCI-H2087; first compound 15.81 µM) of 0.662. The relative viability (NCI-H2087; first compound 50 µM) was 0.689, the relative viability (NCI-H2087; first compound 158.11 µM) was 0.574 and the relative viability (NCI-H2087; first compound 500 µM) was 0.007. For the same compound, the relative viability (NCI-H2126; first compound 5 µM) was 0.65, the relative viability (NCI-H2126; first compound 15.81 µM) was 0.632 and the relative viability (NCI-H2126; first compound 50 µM) was 0.636. The relative viability (NCI-H2126; first compound 158.11 µM) was 0.385, the relative viability (NCI-H2126; first compound 500 µM) was 0.219 and the relative viability (NCI-H2347; first compound 5 µM) was 0.413. The relative viability (NCI-H2347; first compound 15.81 µM) was 0.434, the relative viability (NCI-H2347; first compound 50 µM) was 0.405 and the relative viability (NCI-H2347; first compound 158.11 µM) was 0.383. For the same compound, the relative viability (NCI-H2347; first compound 500 µM) was 0.419, the relative viability (NCI-H358; first compound 5 µM) was 0.152 and the relative viability (NCI-H358; first compound 15.81 µM) was 0.172. For the same compound, the relative viability (NCI-H358; first compound 50 µM) was 0.182, the relative viability (NCI-H358; first compound 158.11 µM) was 0.156 and the relative viability (NCI-H358; first compound 500 µM) was 0.0253. It also gave a relative viability (NCI-H460; first compound 5 µM) of 0.0641, a relative viability (NCI-H460; first compound 15.81 µM) of 0.0607 and a relative viability (NCI-H460; first compound 50 µM) of 0.0741. The relative viability (NCI-H460; first compound 158.11 µM) was 0.0795, the relative viability (NCI-H460; first compound 500 µM) was 0.0168 and the relative viability (NCI-H596; first compound 5 µM) was 0.538. For the same compound, the relative viability (NCI-H596; first compound 15.81 µM) was 0.48, the relative viability (NCI-H596; first compound 50 µM) was 0.519 and the relative viability (NCI-H596; first compound 158.11 µM) was 0.352. The relative viability (NCI-H596; first compound 500 µM) was 0.0295, the relative viability (SW 1573; first compound 5 µM) was 0.771 and the relative viability (SW 1573; first compound 15.81 µM) was 0.777. For the same compound, the relative viability (SW 1573; first compound 50 µM) was 0.781, the relative viability (SW 1573; first compound 158.11 µM) was 0.317 and the relative viability (SW 1573; first compound 500 µM) was 0.0621.
